Measured values reported in patent publication US20190125727A1, “FIXED DOSE COMBINATION FOR PAIN RELIEF WITHOUT EDEMA” (Marina Biotech, Inc., priority 2014, published 2019).
“And” between values parts separate entries of the source, which are not always exact repeats. Equal entries are not always repeated.

Key:
[1] = Table 1 of CELEBREX Package Insert; cited from earlier work
clinical = conditions: human, in vivo, oral, 200 mg
[2] = Applicant's meta-analysis of reported edema rates in osteoarthritic populations by celecoxib dose; conditions: 400 mg/day
[3] = Celecoxib AUC from combined published pharmacokinetic data
[4] = Incidence of edema in SYMPHONY claims / ACC registry database; type: in vivo, human
From the text: To support this study a database was created which contains: 1) Claims data from SYMPHONY DATABASE® pertaining to anti-hypertensives, Statins, COX-2's, and NSAIDS. The data span the most recent 36 months and 2) registry data from the ACC reporting Blood Pressure (systolic/diastolic), peripheral edema flags (yes, no, missing), Heart rate, LDL, Glucose Level, Ejection fraction, GFR, Height, Weight, BJVII, and the like.
SYMPHONY DATABASE® contains true patient level data—All Data Sources be it RX or JVIX claims is tied back to individual patients which is tracked and then encrypted based on first name, last name, gender, DOB and zip code to give an accurate picture of patient level informatics year over year regardless of insurance changes.
The properties for the SYMPHONY DATABASE® are: 1) Takes CELEBREX® antihypertensive, AH, Statin or NSAID or have OA, RA or some other form of arthritis, 36 months, 2) Time Frame=Jan. 1, 2012-Dec. 31, 2014 (3 years), 3) Number of files=201, 4) Size=561 GB zipped (−2.5 TB), 5) Unique Patients=162 million, 6) Patients on CELEBREX®=4.3 million, 7) Patients that have OA=16.3 million (15.4 million only OA), 8) Patients that have RA=2.3 million (1.4 million only RA).
The properties of the ACC registry are: 1) Have 3+BP readings, 2) Time Frame=Jan. 1, 2012-Dec. 31, 2014 (3 years), 3) Number of files=2, 4) Size=590 MB, 51 MB, 5) Unique Patients=1.58 million, 6) Patients with BP readings=1.58 million, 7) Patients with Edema Flag True=870 K.
The edema rate was then measured in the aforementioned database. The incidence of edema was higher for OA patients than RA, other Arthritis, or Arthritis free patients. […] Overall OA seems to be susceptible to CELEBREX® induced edema. The results confirmed the meta-analysis shown above. […]

[5] = Moore et al., cited from earlier work
[6] = no arthritis patients with CELEBREX
[7] = other arthritis patients with CELEBREX

Question: For `O=C(O)Cc1ccccc1Nc1c(Cl)cccc1Cl` [diclofenac], which “patients treated that develop edema” value [1] is on record?
Answer: The value was 1.0%.

Question: Which “patients treated that develop edema” value [1] does the source give for `CC(C)Cc1ccc(C(C)C(=O)O)cc1` (centres unmarked) [ibuprofen] here?
Answer: The value was 3.5%.

Question: For `COc1ccc2cc([C@H](C)C(=O)O)ccc2c1` [naproxen], which “patients treated that develop edema” value [1] is on record?
Answer: The value was 2.1%.

Question: Which results are given for `Cc1ccc(-c2cc(C(F)(F)F)nn2-c2ccc(S(N)(=O)=O)cc2)cc1` [celecoxib]?
Answer: AUC (clinical): 6440 ng·h/mL; edema event rate (upper limit and average) versus 100 or 200 mg/day dose [2]: more than twice as high; AUC Max. ([3]; 100 mg): 3418 ng·h/mL; AUC Med. ([3]; 100 mg): 3395 ng·h/mL; AUC Min. ([3]; 100 mg): 2465 ng·h/mL; AUC Max. ([3]; 200 mg): 6791 ng·h/mL; AUC Min. ([3]; 200 mg): 5972 ng·h/mL; patients treated that develop edema [1]: 2.1%; incidence of edema ([4]; Days of Therapy 60-120): (18.1%); incidence of edema ([4]; Days of Therapy 120-180): (19.3%); incidence of edema ([4]; Days of Therapy 180-240): (21.6%); incidence of edema ([4]; Days of Therapy <60): (19.4%); incidence of edema ([4]; Days of Therapy >240): (26.7%); cases of edema (%), OA ([4]; OA patients with CELEBREX): (6.0%); cases of edema, OA ([4]; OA patients with CELEBREX): 254; cases of edema (%), RA ([4]; RA patients with CELEBREX): (3.3%); cases of edema, RA ([4]; RA patients with CELEBREX): 82; cases of edema (%), No Arthritis [4, 6]: (0.4%); cases of edema, No Arthritis [4, 6]: 451; cases of edema (%), Other Arthritis [4, 7]: (4.1%); cases of edema, Other Arthritis [4, 7]: 1702; incidence of edema at any site, usual ([5]; clinical trials of celecoxib): about 3%; incidence of edema in two trials ([5]; two trials): 23% and 38%
